# Where two headings read alike, the source gives them in different places.
# Assays:
# A2058 melanoma cells [1] = experiment: Apoptosis assay, annexin V-FITC flow cytometry; format: cell-based, human; settings: 10^−5 M, 24 h, average of two parallels ± S.D., control 10.6 ± 0.51
# Description: The pro-apoptotic effects of conjugates and Dau at 10^−5 M concentration was studied after 24 h incubation by flow cytometry using FITC-annexin V (Sony Biotechnology, Weybridge, UK) and a novel image cytometer (NucleoCounter® NC-250^TM, ChemoMetec A/S, Lillerød, Denmark) using Vitabright-48™ (ChemoMetec A/S, Lillerød, Denmark), a cell permeable dye that reacts with thiol groups to form a fluorescent product. […]
# normalizing the viability of conjugate-treated cells with that of the control cells, and these indices of groups pretreated with inhibitors or DMSO were statistically compared.
# The apoptotic effect of conjugates and Dau was determined by a FACSCalibur flow cytometer (Becton Dickinson, San Jose, CA, USA) after staining with annexin V-FITC (Sony Biotechnology, Weybridge, UK) and NucleoCounter® NC-250™ cell analyzer (ChemoMetec A/S, Lillerød, Denmark) using Vitabright-48™, a cell-permeable fluorescent dye (ChemoMetec A/S, Lillerød, Denmark). […]
# The cells were dissociated by a TrypLE reagent (Thermo Fisher Scientific, Waltham, MA, USA) composed of recombinant enzyme protecting the cell’s surface proteins and it was followed by a centrifugation and a washing step with PBS. […] Before labeling with annexin V-FITC, the cells were measured by a flow cytometer for controlling the autofluorescence of cells in case of each treatment group. […]
# A2058 melanoma cells [2] = experiment: xCELLigence impedance-based long-term antiproliferative/cytotoxic measurement; format: cell-based, human; settings: for IC50: Homo sapiens
# Text: One of the major requirements for a drug-delivery conjugate is the ability to provide the antitumor activity of the attached drug inside the cells. The antiproliferative/cytotoxic effect of conjugates was investigated by an impedimetric technique, xCELLigence System (ACEA Biosciences, San Diego, CA, USA). The real-time measurement of the impedance change, which is in direct correlation with the number of adhered cells on an electrode surface, makes this impedimetric assay sensitive enough for cytotoxicity experiments. In the event of a cytotoxic compound, the cells detach from the electrode surface and a drop in the impedance – given as Cell index values – could be observed.
# IC50 values – a concentration that decreases the cell viability by 50% – were calculated from Cell index values obtained at 48 h and 72 h for each concentration and used for comparing the effects of conjugates. It is clearly seen that the presence of acylated Lys could increase almost 10-fold the antitumor activity (p < 0.001) of parent conjugate (GnRH-III(Dau=Aoa)). […]
# Cell proliferation and cytotoxicity measurement
# The antiproliferative/cytotoxic effect of conjugates compared with Dau was assessed using the xCELLigence SP System (ACEA Biosciences, San Diego, CA, USA). This system uses a so-called E-plate having gold microelectrodes covered the surface of each well and quantifies different cellular activities (e.g. cell proliferation, cell adhesion) by real-time measuring the impedance. The detected impedance change is in direct correlation with the cell number or the electrode surface covered by the attached cells. A relative and dimensionless parameter, Cell index (CI), was calculated from the detected impedance change by the following formula: […]
# where Zi is the impedance at a given time point, Z0 is the impedance at t = 0 h, and Fi is a constant depending on the frequency (F10kHz = 15). […]
# For the treatment of the cells, the conjugates and the free drug were applied in 10−12–10−4 M final concentrations and the cells were monitored for further 72 h. […]
# In order to evaluate whether the conjugates could elicit their antiproliferative/cytotoxic character in short-term, A2058 cells (10^4 cells/well) were seeded in 96-well plate 24 h before the treatment. […] After treating the cells with compounds in 10−6–10−5 M concentrations, where their most significant cytotoxic effect was detected in case of the long-term treatments, the cells were washed twice with serum-free medium and cultured for further 48 h in serum-containing medium. The viability of cells was determined by alamarBlue-assay (Thermo Fisher Scientific, Waltham, MA, USA) according to the manufacturer’s instruction. After 4 h incubation with the alamarBlue® reagent, the fluorescence intensity of the reaction product
# [3] = A2058 cells, Cell index time course, Figure S5
smiles,measurement,setting,value
COc1cccc2c1C(=O)c1c(O)c3c(c(O)c1C2=O)C[C@@](O)(C(C)=O)C[C@@H]3O[C@H]1C[C@H](N)[C@H](O)[C@H](C)O1 [daunorubicin],"the ratio of apoptotic cells, annexin V",A2058 melanoma cells [1],33.6 ± 5.51 %
same,concentrations at which the tumor-growth inhibitory effect was elicited (time-course study),A2058 melanoma cells [2]; [3],10^–6 to 10^−4 M
same,time after treatment at which the effect on Cell index set in,A2058 melanoma cells [2]; [3],0 to 5 h
same,IC50,"A2058 melanoma cells [2]; A2058, 48 h, read-out: 48 h IC50",190 ± 17 nM
same,IC50,"A2058 melanoma cells [2]; A2058, 72 h, read-out: 72 h IC50",53 ± 9 nM

# — paper PMC6178282, “Comparative cell biological study of in vitro antitumor and antimetastatic activity on melanoma cells of GnRH-III-containing conjugates modified with short-chain fatty acids” (Beilstein Journal of Organic Chemistry, 2018)
